Data taken from PMC6468747 (Cancers, 2019).
Where two headings read alike, the source gives them in different places.

Tests used:
[1] = tested on: panel of 6 human TNBC cell lines; assay: MTT cell growth assay, summary over the panel; format: cell-based; details: Homo sapiens, 168 h, 7 days
Procedure: Figure 3 In vitro characterization, pharmacokinetics and toxicity profile of VNLG-152R and its two enantiomers. (A) HPLC chromatograms racemic VNLG-152R (left panel) and the resolved enantiomers VNLG-152E1 and VNLG-152E2 (right panel). The conditions of HPLC procedure are presented in Supplementary Materials. (B) Table summarizing GI50 values (µM) each cell line treated with VNLG-152R and its enantiomers. TNBC cell subtypes were treated with listed compound (0.1 nmol/L–100 µmol/L) for 7 days and the GI50 values for the anti-proliferative effects of the compounds were determined from dose response curves (by a nonlinear regression analysis using Graph Pad Prism). Data represents the results from six independent experiments for each cell line. (C) Plasma concentration versus time profile after intravenous (IV, 2 mg/kg each, top panel) or oral (PO, 20 mg/kg each, bottom panel) of VNLG-152R (red), VNLG-152E1 (purple) and VNLG-152E2 (blue) to female CD1 mice. Values represent the mean plasma concentrations from three mice per time point. (D) Table of the pharmacokinetic parameters of various compounds after IV and PO dosing. AUC = area under the curve, T1/2 = elimination half-life, Cmax = maximum plasma concentration, F (%) = oral bioavailability. (E) Effects of VNLG-152R, VNLG-152E1 and VNLG-152E2 on body weight and clinical observations at chronic dose termination of study. Three different doses, i.e., 10, 25, and 50 mg/kg/day (formulated in 40% β-cyclodextrin in saline) of each compound were administered daily by oral gavage for 14 days. Each group consisted of three mice. Loss in body weight, a clinical sign of toxicity was observed during the 14 days of dosing and the maximum tolerated dose (MTD) was estimated following established procedures. Changes in body weight were scored on a scale of 0–4 as follows as described under methods. […]

[2] = tested on: EMT-related proteins; assay: Western blot of EMT-related proteins in MDA-MB-231 and MDA-MB-468 cells; format: cell-based, human; details: 24 h
Procedure: MDA-MB-231, MDA-MB-468, MDA-MB-436, MDA-MB-453, HCC-1806, and MFM-223 cells were purchased from American Type Culture Collection (ATCC, Manassas, VA, USA), and authenticated at the Biopolymer/Genomics Core Facility, University of Maryland Baltimore. Cells were tested for mycoplasma contamination at the University of Maryland Marlene and Stewart Greenebaum Cancer Center (UMGCC) Translational Shared Service. Cells were cultured in the recommended media supplemented with 10% FBS and plated 1 day prior to treatment. Cells were treated with the indicated dose and time in the figure at 37 °C in 5% CO2. Protein lysates were harvested in RIPA lysis buffer (Sigma). Western blotting was done as described previously with antibodies described above.

[3] = tested on: MDA-MB-231-Luc cells; assay: Experimental lung metastasis assay; format: in vivo, SCID mice; details: 20 mg/kg IP, 2 weeks, IVIS luciferase signal in lung
Procedure: The MDA-MB-231-luc cells were the kind gift of Dr. Stuart Martin (UMB). Cells were grown in DMEM with 10% FBS, hygromycin and G418 to subconfluence (~50–70%) and then trypsinized, washed, and resuspended in PBS. 1 × 10^6 cells were injected IV in a volume of 100 µL. Mice were treated for 14 days with vehicle or VNLG-152 by IP injection at doses of 20 mg/kg. The luciferase signals in the mice were detected and photographed using an IVIS in vivo image system on days 0, 1 and 14 [81].

[4] = tested on: MDA-MB-231 cells; assay: MTT cell viability with/without siMnk1 knockdown; format: cell-based, human; details: 5 μM
Procedure: Small interfering RNA targeting the Mnk1 (siMnk1) gene and corresponding scramble siRNA sequence (siControl) were purchased from Ambion ((Waltham, MA, USA). Briefly, 3 × 10^5 MDA-MB-231 cells were seeded into 6 cm cell culture dish (Corning®) and incubated for 24 h in for normal culture medium. Subsequently, cells were subjected to transfection with 100 nM of siMnk1 or siControl using the RNAi Human/Mouse Starter Kit (Qiagen, (Qiagen, Hilden, Germany) following the manufacturer’s instructions for 48 h. For cell growth assay experiments, transfection complex was removed after 48 h, cells were washed twice with phosphate-buffered saline and replaced with normal growth medium. Twenty-four hour later, 5 μM of VNLG-152R was added to the growth media and harvested after 24 h. Non-transfected cells were also treated with 5 μM of VNLG-152R for 24 h. Protein silencing was confirmed by immunoblot analysis.

[5] = 14-day oral toxicity / MTD study; design: species or system female athymic nude mice; details: female, athymic nude, mouse, in vivo; oral, 14 days, estimated; read-out: maximum tolerated dose (MTD)
Procedure: Three different doses, i.e., 10, 25, and 50 mg/kg/day (formulated in 40% β-cyclodextrin in saline) of each compound were administered daily by oral gavage for 14 days. Each group consisted of 3 mice. Their body weight kinetics (loss in body weight, a clinical sign of toxicity) was observed during the 14 days of dosing following established procedures. Changes in body weight were scored on a scale of 0–4 as follows: (1) Weight loss: (10 g = 4, 7–9 g = 3, 4–6 g = 2, 1–3 g = 1; severe = 3, moderate = 2, slight = 1, none = 0).

[6] = tested on: Br-001 xenograft tumors; assay: Patient-derived TNBC xenograft (PDX), PO, racemate vs E1; format: in vivo, NSG mice; details: 20 mg/kg PO
Procedure: The second PDX tumor model experiment was conducted to assess the efficacy of VNLG-152R versus VNLG-152E1 following PO administration. When the tumor volumes had reached about 100 mm^3, the mice were randomly divided into three groups of five mice each. The control group received vehicle (PO) and the other two groups received VNLG-152R (20 mg/kg, PO, once daily), and VNLG-152E1 (20 mg/kg, PO, once daily) five days/week. These treatments continued for 15 days and the tumors were measured and processed as described above.

CC1=C(/C=C/C(C)=C/C=C/C(C)=C/C(=O)Nc2ccc(F)cc2)C(C)(C)CCC1n1ccnc1 (racemic) [VNLG-152R, 4-(±)-(1H-imidazol-1-yl)-N-(4-fluorophenyl)-(E)-retinamide]
GI50 ([1]; mean over 6 TNBC cell lines, read-out: average GI50): 0.97 µM
GI50 ([1]; range over 6 TNBC cell lines, read-out: range of GI50): 0.62 to 1.86 µM
expression of N-Cadherin, β-catenin, MMP-2, MMP-9, Snail, Slug, Vimentin and TCF/ZEB-1 [2]: concentration-dependent decreases
inhibition of metastasis [3]: ~ 80%
reduction in cell viability ([4]; non-transfected MDA-MB-231 cells): ~ 75%
cell viability in cells harboring Mnk1 knockdown ([4]; siMnk1-transfected MDA-MB-231 cells): did not show any significant decrease in cell viability
MTD at 14 days [5]: > 50 mg/kg
changes in body weights [6]: No changes in body weights were observed
TGI ([6]; 5 days per week, 15 days): 82%
